Data as given in article PMC8624133, “10th Trends in Medical Mycology Held on 8 to 11 October 2021, Aberdeen, Scotland, Organized by the European Confederation of Medical Mycology (ECMM)” (Journal of Fungi, 2021).
Converted amounts (≈) assume the structure as drawn. Where two headings read alike, the source gives them in different places. Starred links: 1 amine or outer side, 2 acyl side, 3 side chain; linkers in the order of their positions; H or OH if unused. Positions of bridges follow the written chain, without caps; N, C: chain ends. Non-standard residues stand in square brackets, D forms with d. Residues, ends and D or L forms follow the SMILES beside them. *: point of attachment. pTerphenylCO(4''-OnC5H11) = CCCCCOc1ccc(-c2ccc(-c3ccc(C(=O)*)cc3)cc2)cc1; Orn(4R-OH,5R-OH) = O=C([C@H](C[C@@H](O)[C@@H](O)N[*:3])N[*:1])[*:2]; hTyr(3S-OH,4S-OH) = N[C@H](C(=O)O)[C@H](O)[C@@H](O)c1ccc(O)cc1; Pro(3S-OH,4S-Me) = C[C@H]1CN[C@H](C(=O)O)[C@H]1O; Hyp = O=C(O)[C@@H]1C[C@@H](O)CN1

What was measured:
[1] = test system: C. auris clinical strains; experiment: organism not typed; assay type: cell-based, Candida auris; details: range, 78 strains from patients with COVID-19
[2] = test system: C. glabrata isolates; experiment: Rapid XTT assay based on EUCAST E.Def 7.3; assay type: cell-based, Candida glabrata; details: […], mean ± SD
[3] = test system: Candida auris isolates; experiment: microbe, parasite or virus in culture; assay type: cell-based
[4] = test system: Rasamsonia argillacea species complex; experiment: Antifungal susceptibility testing; assay type: cell-based; details: sputum isolate of a CF patient
[5] = test system: C. albicans and C. glabrata; experiment: FUNGINOS candidemia survey, susceptibility according to CLSI; assay type: cell-based; details: share of isolates
[6] = test system: C. glabrata; experiment: ARIA surveillance, CLSI M27 broth microdilution; assay type: cell-based, Candida glabrata; details: CLSI M60
Description: Materials & Methods: Isolates (n = 730) were collected and re-identified by MALDI-TOF or molecular methods. […] Percentage susceptibility (%S) or wild-type (%WT) were calculated according to CLSI breakpoints (CLSI supplement M60) or epidemiological cut-off values (CLSI supplement M59), respectively.

[7] = test system: Phaeoacremonium parasiticum; experiment: Antifungal susceptibility testing; assay type: cell-based
Description: Results: Cultures for bacteria were sterile. Culture on Sabouraud was positive after 5 days of incubation, showing slow growing and initially white colonies. […] Its identification was performed by sequencing the internal transcribed spacer (ITS) region of ribosomal DNA, being the isolate identified as Phaeoacremonium parasiticum (100% homology).

[8] = test system: Parathyridaria percutanea; experiment: In vitro antifungal susceptibility; assay type: cell-based
[9] = test system: invasive C. glabrata strains; experiment: YeastOne Sensititre colorimetric broth microdilution; assay type: cell-based, Candida glabrata; details: Nakaseomyces glabratus
Description: Material and Method: Thirty-six clinical isolates of invasive C. glabrata strains were analyzed in this study. Minimum inhibitory concentrations (MICs) were determined using colorimetric broth microdilution (YeastOneSensititre, Trek diagnostics). Genomic DNA was isolated using Qiagen DNA extraction Kit. The FKS1 and FKS2 gene fragment were amplified and PCR products were purified prior to sequencing. Double-strand sequencing of PCR products was performed using Sanger sequencing methodology. Sequences were analyzed with MEGA-6 software to identify specific SNP combination against wild-type sequences of C. glabrata.

[10] = test system: C. auris; experiment: EUCAST EDef 7.3.1 MIC and checkerboard microdilution; assay type: cell-based, Candida auris
Description: Methods: We studied 22 C. auris isolates obtained from different clinical samples from the Hospital La Fe, Valencia, Spain (eight from blood culture, seven from oropharynx and seven from urine cultures). Candida parapsilosis ATCC 22019 and Candida krusei ATCC 6258 were used as quality controls. The minimum inhibitory concentration (MIC) was determined according to the European Committee on Antibiotic Susceptibility Testing (EUCAST) EDef 7.3.1 document. The interaction between citral and the rest of antifungal drugs was assessed by a checkerboard microdilution method. […] The in vitro interaction of the drug combinations was interpreted in terms of the fractional inhibitory concentration index (FICI) as follows: FICI < 1, synergistic; FICI equal to 1, additive; and FICI > 1, indifferent or antagonistic.

[11] = test system: C. guilliermondii; experiment: EUCAST E. Def 7.3.2 microdilution; assay type: cell-based, Candida guilliermondii; details: n = 62
[12] = test system: C. fermentati; experiment: EUCAST E. Def 7.3.2 microdilution; assay type: cell-based, Candida fermentati; details: n = 2
[13] = test system: Aspergillus tubingensis; experiment: EUCAST susceptibility; assay type: cell-based; details: read-out: MIC
Description: The fungus was identified as Aspergillus niger and liposomal amphotericine B was switched to anidulafungin pending susceptibility testing as the patient had pre-existing […] (eGFR CKD-EPI 40 mL/min/1.73 m²). […] Despite increasing the anidulafungin dosage to 200 mg daily and adequate voriconazol levels, serum galactomannan levels remained elevated (index 2.1 at discharge). […] Since no extracardiac sources were found and the patient did well clinically, they were discharched. Anidulafungin was switched to caspofungin to facilitate ongoing IV treatment in the outpatient setting. […] The patient died shortly after. Obduction was not performed.

[14] = test system: C. albicans; experiment: Neutrophil control of hyphal growth (swarming); assay type: cell-based, Candida albicans; details: neutrophils of SOT and SCT recipients, ex vivo
Description: Methods and Materials: Twenty-one SOT, 19 SCT and 23 healthy control patients (HC) were identified and consented at primary care/outpatient transplant clinics. Transplant recipients were enrolled at a time period two to four months post-transplant. Following consent and peripheral blood collection, neutrophils were freshly isolated and co-incubated with C. albicans and the percent remaining live yeast was measured using a viability dye compared to a standard control to determine fungal elimination by neutrophils. Growth inhibition of C. albicans was also quantified by neutrophil swarming to yeast spotted onto glass slides, assessed by live cell imaging with or without G-CSF. Effect of soluble factors on neutrophils function was determined by incubation of healthy neutrophils with SOT and SCT serum and measuring ability to control C. albicans.

## CCCCCOc1ccc(-c2ccc(-c3ccc(C(=O)N[C@H]4C[C@@H](O)[C@@H](O)NC(=O)[C@@H]5[C@@H](O)[C@@H](C)CN5C(=O)[C@H]([C@@H](C)O)NC(=O)[C@H]([C@H](O)[C@@H](O)c5ccc(O)cc5)NC(=O)[C@@H]5C[C@@H](O)CN5C(=O)[C@H]([C@@H](C)O)NC4=O)cc3)cc2)cc1 [anidulafungin] ({pTerphenylCO(4''-OnC5H11)}-[Orn(4R-OH,5R-OH)]T[Hyp][hTyr(3S-OH,4S-OH)]T[Pro(3S-OH,4S-Me)]; lactam 1-C)
[1]
  MIC: 0.015 to 8 µg/mL (≈ 0.0132 to 7.02 µM)
[2]; drug-free 0.37 ± 0.04
  XTT-absorbance in drug-treated wells: 0.11 ± 0.03
[2]; drug-free 0.39 ± 0.05
  XTT-absorbance in drug-treated wells: 0.25 ± 0.06
[3]; CDC guidelines
  categorised as resistant on MIC: none
[3]; Candidozyma auris, […], IQR given, read-out: median MIC
  MIC: 0.25 µg/mL (≈ 0.219 µM)
[4]
  minimal inhibitory concentrations (MIC): low MIC
[5]
  non-susceptibility: 2%
[6]; Italy
  susceptibility: 15.8%
[6]; Panama
  susceptibility: 91.7%
[7]
  minimal inhibitory concentrations (MIC), in words: higher
[8]
  in vitro susceptibility category: resistance
[9]; 36 clinical isolates, read-out: median (Min–Max) MIC
  MIC: 0.06 µg/mL
[9]; isolate with FKS2 I661T
  MIC: 0.06 µg/mL
[10]
  MIC of anidulafungin in combination with citral: 0.016 µg/mL
[10]; Candidozyma auris, 22 clinical isolates
  MIC: 0.125 µg/mL
[11]; Meyerozyma guilliermondii
  MIC50: 0.25 µg/mL (≈ 0.219 µM)
  MIC90: 0.5 µg/mL (≈ 0.438 µM)
[11]
  GM: 0.304 µg/mL
  MIC Range: 0.008 to 1 µg/mL
[12]
  GM: 0.25 µg/mL
  MIC Range: 0.25 µg/mL (≈ 0.219 µM)
[13]
  MIC: 0.03 µg/mL (≈ 0.0263 µM)

B1: G-CSF (protein, UniProt P09919 31-207, looked up)
Granulocyte …: TPLGPASSLPQSFLLKCLEQVRKIQGDGAALQEKLVSECATYKLCHPEELVLLGHSLGIPWAPLSSCPSQALQLAGCLSQLHSGLFLYQGLLQALEGISPELGPTLDTLQLDVADFATTIWQQMEELGMAPALQPTQGAMPAFASAFQRRAGGVLVASHLQSFLEVSYRVLRHLAQP
[14]
  neutrophil ability to control hyphal growth: partially restored
